Results reported in ChEMBL document CHEMBL1148548, “New 7,8-ethylenedioxy-2,3-benzodiazepines as noncompetitive AMPA receptor antagonists” (Bioorg Med Chem Lett, 2006).

Tests used:
[1] = target: T1, Glutamate receptor ionotropic, AMPA (Rattus norvegicus, UniProt P19490+P19491+P19492+P19493); assay: Ability to inhibit kainate-induced increase of calcium in rat cerebellar granule cells expressing AMPA receptor; assay type: functional
Mus musculus [2] = assay: Effect on locomotion in mice assessed by rotarod test at 3.3-200 umol/kg, ip; assay type: functional
Mus musculus [3] = assay: Effect on tonic phase of audiogenic seizures in DBA/2 mice at 3.3-200 umol/kg, ip; assay type: functional; settings: DBA/2, ip
Mus musculus [4] = assay: Effect on clonic phase of audiogenic seizures in DBA/2 mice at 3.3-200 umol/kg, ip; assay type: functional; settings: DBA/2, ip
Mus musculus [5] = assay: Protective index [PI = TD50/ED50 (from clonic phase of the audiogenic seizures)] in mice at 3.3-200 umol/kg, ip; assay type: functional
[6] = target: T1, Glutamate receptor ionotropic, AMPA; assay: Displacement of [3H]CP-526427 from AMPA receptor in rat forebrain membranes; assay type: cell membranes, Membrane
[7] = target: Glutamate receptor ionotropic, kainate 1 (Rattus norvegicus, UniProt P22756); assay: Ability to inhibit domoic acid-induced increase of calcium in rat HEK293 cells expressing GluR5; assay type: functional, cell-based
Sequence of Glutamate receptor ionotropic, kainate 1 (P22756 whole entry): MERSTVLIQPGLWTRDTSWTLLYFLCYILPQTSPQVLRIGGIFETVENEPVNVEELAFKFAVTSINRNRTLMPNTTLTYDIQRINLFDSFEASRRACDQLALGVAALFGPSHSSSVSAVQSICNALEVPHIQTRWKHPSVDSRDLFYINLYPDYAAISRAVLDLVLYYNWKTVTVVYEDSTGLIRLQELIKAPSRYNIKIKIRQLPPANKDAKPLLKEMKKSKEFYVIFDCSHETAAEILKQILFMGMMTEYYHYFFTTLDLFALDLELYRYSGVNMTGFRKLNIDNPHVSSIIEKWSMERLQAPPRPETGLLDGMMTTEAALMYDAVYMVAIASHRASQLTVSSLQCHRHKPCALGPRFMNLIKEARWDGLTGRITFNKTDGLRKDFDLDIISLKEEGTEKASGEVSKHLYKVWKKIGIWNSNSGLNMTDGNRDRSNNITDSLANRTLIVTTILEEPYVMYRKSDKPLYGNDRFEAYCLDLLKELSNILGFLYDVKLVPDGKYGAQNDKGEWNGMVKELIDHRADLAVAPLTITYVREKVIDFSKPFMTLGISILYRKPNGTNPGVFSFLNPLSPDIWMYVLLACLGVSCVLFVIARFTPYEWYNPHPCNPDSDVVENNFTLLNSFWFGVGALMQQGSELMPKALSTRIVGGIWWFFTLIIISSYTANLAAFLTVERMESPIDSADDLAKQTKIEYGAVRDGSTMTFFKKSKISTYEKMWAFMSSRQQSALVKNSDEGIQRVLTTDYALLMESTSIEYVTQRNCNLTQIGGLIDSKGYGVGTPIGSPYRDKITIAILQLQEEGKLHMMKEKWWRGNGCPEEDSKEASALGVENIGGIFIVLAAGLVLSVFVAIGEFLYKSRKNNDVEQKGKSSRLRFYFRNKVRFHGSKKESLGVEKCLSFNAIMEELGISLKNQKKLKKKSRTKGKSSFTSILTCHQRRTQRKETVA

For `CNC(=O)N1N=C(c2ccc(N)cc2)c2cc3c(cc2CC1=O)OCCO3`, which IC50 [1] is on record?
The IC50 was 5.4 µM.

And the TD50 (Mus musculus [2])?
The TD50 was 96.4 µmol/kg.

What about the ED50 (Mus musculus [3]) of the same molecule?
The ED50 was 32.1 µmol/kg.

What about the ED50 (Mus musculus [4]) of the same molecule?
Its ED50 is 45.5 µmol/kg.

What about the “Ratio TD50/ED50” value (Mus musculus [5]) of the same molecule?
Its value is 2.1.

`Cc1cc(C2=NNC(=O)Cc3cc4c(cc32)OCCO4)ccc1N` was tested. Which TD50 (Mus musculus [2]) did it give?
The TD50 was 115 µmol/kg.

And the ED50 (Mus musculus [3])?
Its ED50 is 24.6 µmol/kg.

And the ED50 (Mus musculus [4])?
The ED50 was 48.2 µmol/kg.

What about the “Ratio TD50/ED50” value (Mus musculus [5]) of the same molecule?
The value was 2.4.

And the IC50 [6]?
The IC50 was 1.8 µM.

How did the ED50 (Mus musculus [3]) turn out when `Nc1ccc(C2=NNC(=O)Cc3cc4c(cc32)OCCO4)c(Cl)c1` was run?
Its ED50 is greater than 100 µmol/kg.

And the ED50 (Mus musculus [4])?
The ED50 was greater than 100 µmol/kg.

And the IC50 [6]?
Its IC50 is greater than 20 µM.

`Nc1ccc(C2=NNC(=O)Cc3cc4c(cc32)OCO4)cc1` was tested. Which IC50 [1] did it give?
The IC50 was 12 µM.

And the “Ratio TD50/ED50” value (Mus musculus [5])?
The value was 4.5.

With `CCNC(=O)N1N=C(c2ccc(N)cc2)c2cc3c(cc2CC1=O)OCO3` as the molecule, how does the IC50 [1] read?
The IC50 was 11 µM.

What about the “Ratio TD50/ED50” value (Mus musculus [5]) of the same molecule?
Its value is 3.8.

And the IC50 [6]?
Its IC50 is 12 µM.

What does the source list for `Nc1ccc(C2=NNC(=O)Cc3cc4c(cc32)OCCO4)cc1Cl`?
TD50 (Mus musculus [2]): 99.1 µmol/kg; ED50 (Mus musculus [3]): 27.2 µmol/kg; ED50 (Mus musculus [4]): 70.8 µmol/kg; Ratio TD50/ED50 (Mus musculus [5]): 1.4; IC50 [6]: 2 µM

For `Nc1ccc(C2=NNC(=O)Cc3cc4c(cc32)OCCO4)cc1`, which IC50 [1] is on record?
The IC50 was 2.9 µM.

What about the TD50 (Mus musculus [2]) of the same molecule?
Its TD50 is 102 µmol/kg.

And the ED50 (Mus musculus [3])?
The ED50 was 44.8 µmol/kg.

What about the ED50 (Mus musculus [4]) of the same molecule?
The ED50 was 61.3 µmol/kg.

What about the “Ratio TD50/ED50” value (Mus musculus [5]) of the same molecule?
Its value is 1.7.

And the IC50 [7]?
Its IC50 is greater than 10 µM.

Which results are given for `CCNC(=O)N1N=C(c2ccc(N)cc2)c2cc3c(cc2CC1=O)OCCO3`?
TD50 (Mus musculus [2]): 95.3 µmol/kg; ED50 (Mus musculus [3]): 41.7 µmol/kg; ED50 (Mus musculus [4]): 48.1 µmol/kg; Ratio TD50/ED50 (Mus musculus [5]): 2; IC50 [6]: 9.3 µM

How did the “Ratio TD50/ED50” value (Mus musculus [5]) turn out when `CNC(=O)N1N=C(c2ccc(N)cc2)c2cc3c(cc2CC1=O)OCO3` was run?
The value was 3.9.

How did the “Ratio TD50/ED50” value (Mus musculus [5]) turn out when `CC1=NN=C(c2ccc(N)cc2)c2cc3c(cc2C1)OCO3` [GYKI-52466] was run?
Its value is 2.1.
